Laboratory results: patent US20210187085A1, “PHOSPHOLIPASE A2 RECEPTOR ANTIGENS AND THEIR MEDICAL USE” (The University of Manchester, priority 2017, published 2021)
Entries after “also recorded” stand apart in the source; their conditions may differ. Where a SMILES comes first, the peptide text is derived from it. Bridges are numbered along the chain shown (N, C = ends). Where no end group is shown, it is not given here.

Tests used:
anti-PLA2R mouse 20 Ab [1] = experiment: ProteOn SPR, candidate peptide mouse 20 antibody binding kinetics; settings: peptide immobilised on GLC chip, mouse 20 Ab 5-25 nM; for Ka: Langmuir 1:1
anti-PLA2R Mouse 20 Ab [2] = experiment: Kd 1/s
anti-PLA2R Mouse 20 Ab [3] = experiment: Ka 1/Ms
anti-PLA2R mouse 20 Ab [4] = experiment: Slot blot analysis with mouse 20 Ab; type: binding; settings: for interaction with mouse 20 Ab in slot blot: 205 nm NanoDrop and ponceau S staining
Excerpt: Incorporating the 205 nm NanoDrop and ponceau S staining the assessment of the peptide epitope library was undertaken with the mouse 20 Ab.

mouse 20 Ab = experiment: ELISA analysis of peptide epitope library; type: binding; settings: 1.5 ng of peptide immobilised, absorbance 450 nm
Description: ELISA 96 well plates (ThermoScientific, 3455) were coated with 100 μL of 1.5 μg/mL peptide in 0.1M NaHCO3 pH 9.5 buffer overnight at 4° C. The solution was removed and wells blocked with 100 μL of superblock (ThermoScientific, 37515) for 1 hour. The solution was again removed and replaced with 100 μL of 2 μg/mL of mouse 20 Ab in superblock containing 0.05% Tween. The wells were then incubated for 2 hours at room temperature with constant shaking. The solutions were removed and washed nine times in PBST and then replaced with 100 μL horseradish peroxidase (HRP) conjugated goat anti-mouse IgG 1:5000 in superblock containing 0.05% Tween. The wells were again incubated for two hours at room temperature with constant shaking. The solutions were removed and washed nine times in PBST. 100 μL tetramethylebenzadine (Sigma, T4444) was added and incubated for 10 minutes at room temperature. 50 μL of sulphuric acid and absorbance measured on a well plate reader at 450 nm. Controls of peptide with secondary Ab and primary and secondary Ab were prepared.

human anti-PLA2R autoAbs = experiment: Slot blot analysis with human anti-PLA2R autoAbs; settings: non-reducing conditions, FIG. 1 D
[5] = tested on: human Nottingham patient autoAb; experiment: PEPperCHIP peptide microarray substitution scan, phase 1; type: binding; settings: Nottingham patient autoAbs

Compound	Kd (anti-PLA2R mouse 20 Ab [1])	Ka (anti-PLA2R mouse 20 Ab [1])	Kd (anti-PLA2R Mouse 20 Ab [2])	Ka (anti-PLA2R Mouse 20 Ab [3])	also measured
VIDSESLKK [listing 1 of 2 here]	~0.1 nM	1.86e+06 M⁻¹ s⁻¹			
SVLTLENCK [Peptide 2]	~0.1 nM	1.43e+06 M⁻¹ s⁻¹	5.32e-05 s⁻¹	1.43e+06 M⁻¹ s⁻¹	
VIDSESLKK [listing 2 of 2 here]			0.00014 s⁻¹	1.86e+06 M⁻¹ s⁻¹	
PIQSESLKK [listing 1 of 2 here]			7.5e-05 s⁻¹	107000 M⁻¹ s⁻¹	
Head to Tail cyclic: head to tail cyclic 28mer (SEQ ID NO: 74) (KGCFVIQSESLKKSIQAGKSVLTLENCK; head-to-tail cyclisation) [listing 1 of 2 here]			9.4e-05 s⁻¹	1.55e+06 M⁻¹ s⁻¹	
Head to Tail cyclic: head to tail cyclic 28mer (SEQ ID NO: 74) (KGCFVIQSESLKKSIQAGKSVLTLENCK; head-to-tail cyclisation) [listing 2 of 2 here]	~0.1 nM	1.55e+06 M⁻¹ s⁻¹			slot blot staining with anti-PLA2R mouse 20 Ab (anti-PLA2R mouse 20 Ab [4]; non-reducing conditions, FIG. 1 D): stained positive; slot blot intensity of interaction with mouse 20 Ab (anti-PLA2R mouse 20 Ab [4]; peptide epitope library): highest intensity; interaction with mouse 20 Ab in slot blot (anti-PLA2R mouse 20 Ab [4]; peptide epitope library, listed as head to tail 28mer): found to interact; also recorded: displayed association; association with mouse 20 Ab in ELISA (mouse 20 Ab): displayed association; slot blot staining with human anti-PLA2R autoAbs (human anti-PLA2R autoAbs): stained positive
VIQSESLKK [listing 1 of 2 here]			0.000136 s⁻¹	2.27e+06 M⁻¹ s⁻¹	
PIDSESLKK [listing 1 of 2 here]	~0.1 nM	1.79e+06 M⁻¹ s⁻¹			
CC[C@H](C)[C@@H]1NC(=O)[C@@H](NC(=O)[C@H](CO)NC(=O)[C@H](CCC(=O)O)NC(=O)[C@H](CO)NC(=O)[C@H](CCC(N)=O)NC(=O)[C@@H](NC(=O)[C@@H](N)C(C)C)[C@@H](C)CC)CSSC[C@@H](C(=O)O)NC(=O)[C@H](CC(N)=O)NC(=O)[C@H](CCC(=O)O)NC(=O)[C@H](CC(C)C)NC(=O)[C@H]([C@@H](C)O)NC(=O)[C@H](CC(C)C)NC(=O)[C@H](C(C)C)NC(=O)[C@H](CO)NC(=O)[C@H](CCCCN)NC(=O)CNC(=O)[C@H](C)NC(=O)[C@H](CCC(N)=O)NC1=O [20mer] (H-VIQSESCIQAGKSVLTLENC-OH; disulfide 7-20)	~0.1 nM	1.56e+06 M⁻¹ s⁻¹	0.000134 s⁻¹	1.56e+06 M⁻¹ s⁻¹	interaction with mouse 20 Ab in slot blot (anti-PLA2R mouse 20 Ab [4]; peptide epitope library): little to no association; association with mouse 20 Ab in ELISA (mouse 20 Ab): little to no association; autoAb binding in substitution scan (in words) ([5]; listed as Peptide platform 2c): successfully interact; also recorded: successfully bound; autoAb binding in substitution scan (in words) ([5]; listed as Peptide platform 3c): successfully interact; also recorded: successfully bound
PIQSESLKK [listing 2 of 2 here]	~0.1 nM	107000 M⁻¹ s⁻¹			
VIQSESLKK [listing 2 of 2 here]	~0.1 nM	2.27e+06 M⁻¹ s⁻¹			
PIDSESLKK [listing 2 of 2 here]			0.000143 s⁻¹	1.79e+06 M⁻¹ s⁻¹	
